Results from ChEMBL document CHEMBL3608308, “Design, synthesis and antiproliferative activity of novel heterobivalent hybrids based on imidazo[2,1-b][1,3,4]thiadiazole and imidazo[2,1-b][1,3]thiazole scaffolds” (Eur J Med Chem, 2015).
Calls of active or inactive are those of the source. The calls are words filed in the database; no cut-off is given here.

Key:
CCRF-CEM = test: Antiproliferative activity against human CEM cells assessed as inhibition of cell proliferation incubated for 3 days by Coulter counter based assay; assay type: functional; details: 72 h
U-937 [1] = test: Induction of apoptosis in human U937 cells assessed as cleavage of pro-caspase-8 at 3 uM incubated for 8 hrs by immunoblot method; assay type: functional, cell-based
U-937 [2] = test: Induction of apoptosis in human U937 cells over-expressing human Bcl-2 assessed as induction of cell shrinkage at 3 uM incubated for 8 hrs by Hoechst 33258 staining based fluorescent microscopy; assay type: functional
U-937 [3] = test: Induction of apoptosis in human U937 cells assessed as induction of increase in condensed and fragmented chromatin at 3 uM incubated for 8 hrs by Hoechst 33258 staining based fluorescent microscopy; assay type: functional, cell-based
U-937 [4] = test: Cytotoxicity against human U937 cells over-expressing human Bcl-2 assessed as reduction in cell viability incubated for 72 hrs by MTT assay; assay type: functional, cell-based; details: for IC50: U-937, 72 h
U-937 [5] = test: Induction of apoptosis in human U937 cells assessed as induction of increase in apoptotic bodies at 3 uM incubated for 8 hrs by Hoechst 33258 staining based fluorescent microscopy; assay type: functional, cell-based
HL-60 [6] = test: Induction of apoptosis in human HL60 cells assessed as hypodiploid cells level at 1 and 10 uM incubated for 24 hrs by propidium iodide staining based flow cytometry; assay type: functional, cell-based
U-937 [7] = test: Induction of apoptosis in human U937 cells over-expressing human Bcl-2 assessed as induction of increase in apoptotic bodies at 3 uM incubated for 8 hrs by Hoechst 33258 staining based fluorescent microscopy; assay type: functional, cell-based
U-937 [8] = test: Induction of apoptosis in human U937 cells over-expressing human Bcl-2 assessed as induction of increase in condensed and fragmented chromatin at 3 uM incubated for 8 hrs by Hoechst 33258 staining based fluorescent microscopy; assay type: functional, cell-based
HL-60 [9] = test: Induction of apoptosis in human HL60 cells assessed as cleavage of pro-caspase-3/7 activity at 3 uM incubated for 8 hrs DEVD-pNA chromogenic substrate proteolytic cleavage assay; assay type: functional
U-937 [10] = test: Induction of apoptosis in human U937 cells assessed as cleavage of pro-caspase-3 at 3 uM incubated for 8 hrs by immunoblot method; assay type: functional, cell-based
U-937 [11] = test: Induction of apoptosis in human U937 cells over-expressing human Bcl-2 assessed as induction of morphological changes by inverted phase contrast microscopy; assay type: functional, cell-based
U-937 [12] = test: Cytotoxicity against human U937 cells assessed as reduction in cell viability incubated for 72 hrs by MTT assay; assay type: functional, cell-based; details: for IC50: U-937, 72 h
HL-60 [13] = test: Induction of apoptosis in human HL60 cells assessed as cleavage of pro-caspase-9 at 3 uM incubated for 8 hrs by immunoblot method; assay type: functional, cell-based
U-937 [14] = test: Induction of apoptosis in human U937 cells assessed as cleavage of pro-caspase-9 at 3 uM incubated for 8 hrs by immunoblot method; assay type: functional, cell-based
U-937 [15] = test: Induction of apoptosis in human U937 cells assessed as induction of cell shrinkage at 3 uM incubated for 8 hrs by Hoechst 33258 staining based fluorescent microscopy; assay type: functional
HL-60 [16] = test: Induction of apoptosis in human HL60 cells assessed as hypodiploid cells level at 1 uM incubated for 24 hrs by propidium iodide staining based flow cytometry (reference value: 2.6 +/- 0.6%); assay type: functional
L1210 [17] = test: Antiproliferative activity against mouse L1210 cells assessed as inhibition of cell proliferation incubated for 2 days by Coulter counter based assay; assay type: functional; details: L1210, 48 h
HeLa = test: Antiproliferative activity against human HeLa cells assessed as inhibition of cell proliferation incubated for 4 days by Coulter counter based assay; assay type: functional; details: 96 h
U-937 [18] = test: Induction of apoptosis in human U937 cells over-expressing human Bcl-2 assessed as increase in cytochrome c release into cytosol at 3 uM incubated for 8 hrs by immunoblot method; assay type: functional, cell-based
HL-60 [19] = test: Induction of apoptosis in human HL60 cells assessed as increase in cytochrome c release into cytosol at 3 uM incubated for 8 hrs by immunoblot method; assay type: functional, cell-based
U-937 [20] = test: Induction of apoptosis in human U937 cells assessed as induction of morphological changes by inverted phase contrast microscopy; assay type: functional, cell-based
SK-MEL-1 = test: Cytotoxicity against human SK-MEL-1 cells assessed as reduction in cell viability incubated for 72 hrs by MTT assay; assay type: functional, cell-based; details: for IC50: SK-MEL-1, 72 h
HL-60 [21] = test: Induction of apoptosis in human HL60 cells assessed as induction of morphological changes by inverted phase contrast microscopy; assay type: functional, cell-based
HL-60 [22] = test: Induction of apoptosis in human HL60 cells assessed as cleavage of pro-caspase-8 at 3 uM incubated for 8 hrs by immunoblot method; assay type: functional, cell-based
HL-60 [23] = test: Cytotoxicity against human HL60 cells assessed as reduction in cell viability incubated for 72 hrs by MTT assay; assay type: functional, cell-based; details: for IC50: HL-60, 72 h
HL-60 [24] = test: Induction of apoptosis in human HL60 cells assessed as cleavage of pro-caspase-3 at 3 uM incubated for 8 hrs by immunoblot method; assay type: functional, cell-based
U-937 [25] = test: Induction of apoptosis in human U937 cells assessed as increase in cytochrome c release into cytosol at 3 uM incubated for 8 hrs by immunoblot method; assay type: functional, cell-based
FM3A = test: Antiproliferative activity against mouse FM3A cells assessed as inhibition of cell proliferation incubated for 2 days by Coulter counter based assay; assay type: functional; details: 48 h
HL-60 [26] = test: Induction of DNA laddering in human HL60 cells at 3 to 10 uM incubated for 24 hrs by ethidium bromide staining based gel electrophoresis method; assay type: functional, cell-based
HL-60 [27] = test: Induction of apoptosis in human HL60 cells assessed as hypodiploid cells level at 1 uM incubated for 24 hrs by propidium iodide staining based flow cytometry relative to untreated control; assay type: functional
L1210 [28] = test: Cytotoxicity against mouse L1210 cells; assay type: functional, cell-based

Structure (SMILES)	IC50 (CCRF-CEM) [nM]	Activity (U-937 [1])	Activity (U-937 [2])	Activity (U-937 [3])	Activity (U-937 [4])	IC50 (U-937 [4]) [nM]	Activity (U-937 [5])	Activity (HL-60 [6])	Activity (U-937 [7])	Activity (U-937 [8])	fold change (FC) (HL-60 [9])	Activity (U-937 [10])	Activity (U-937 [11])	Activity (U-937 [12])	IC50 (U-937 [12]) [nM]	Activity (HL-60 [13])	Activity (U-937 [14])	Activity (U-937 [15])	Activity (HL-60 [16]) [%]	IC50 (L1210 [17]) [nM]	also measured
C=C(Br)C(=O)Nc1cccc(-c2cn3nc(-c4ccc(F)cc4)sc3n2)c1	830	Active	Active	Active	Dose-dependent effect	370	Active	Dose-dependent effect	Active	Active	2.3	Active	Active	Dose-dependent effect	560	Active	Active	Active	12.1	250	IC50 (HeLa): 870 nM; Activity (U-937 [18]): Active; Activity (HL-60 [19]): Active; Activity (U-937 [20]): Active; Activity (SK-MEL-1): Dose-dependent effect; IC50 (SK-MEL-1): 1100 nM; Activity (HL-60 [21]): Active; Activity (HL-60 [22]): Active; Activity (HL-60 [23]): Dose-dependent effect; IC50 (HL-60 [23]): 530 nM; Activity (HL-60 [24]): Active; Activity (U-937 [25]): Active; IC50 (FM3A): 610 nM; Activity (HL-60 [26]): inactive; fold change (FC) (HL-60 [27]): 4.6
C=C(Br)C(=O)O																					IC50 (L1210 [28]): > 120000 nM
C=C(Br)C(=O)Nc1cccc(-c2cn3nc(-c4cccs4)sc3n2)c1	410	Active	Active	Active	Dose-dependent effect	270	Active	Dose-dependent effect	Active	Active	3	Active	Active	Dose-dependent effect	570	Active	Active	Active	14.5	170	IC50 (HeLa): 670 nM; Activity (U-937 [18]): Active; Activity (HL-60 [19]): Active; Activity (U-937 [20]): Active; Activity (SK-MEL-1): Dose-dependent effect; IC50 (SK-MEL-1): 690 nM; Activity (HL-60 [21]): Active; Activity (HL-60 [22]): Active; Activity (HL-60 [23]): Dose-dependent effect; IC50 (HL-60 [23]): 380 nM; Activity (HL-60 [24]): Active; Activity (U-937 [25]): Active; IC50 (FM3A): 370 nM; Activity (HL-60 [26]): inactive; fold change (FC) (HL-60 [27]): 5.6
C=C(Br)C(=O)Nc1cccc(-c2cn3nc(-c4ccc(OC)c(OC)c4)sc3n2)c1	380	Active	Active	Active	Dose-dependent effect	210	Active	Dose-dependent effect	Active	Active	3.2	Active	Active	Dose-dependent effect	270	Active	Active	Active	16	42	IC50 (HeLa): 610 nM; Activity (U-937 [18]): Active; Activity (HL-60 [19]): Active; Activity (U-937 [20]): Active; Activity (SK-MEL-1): Dose-dependent effect; IC50 (SK-MEL-1): 770 nM; Activity (HL-60 [21]): Active; Activity (HL-60 [22]): Active; Activity (HL-60 [23]): Dose-dependent effect; IC50 (HL-60 [23]): 210 nM; Activity (HL-60 [24]): Active; Activity (U-937 [25]): Active; IC50 (FM3A): 110 nM; Activity (HL-60 [26]): inactive; fold change (FC) (HL-60 [27]): 6
